Reference: patent US20080166766A1, “Genetic incorporation of unnatural amino acids into proteins in mammalian cells” (The Scripps Research Institute, priority 2006, published 2008)

Experiments:
[1] = system: T-REx™ CHO cells; experiment: Yield of purified mutant GFP containing unnatural amino acid (pSWAN two-plasmid system); format: cell-based, Chinese hamster; details: pMpa 10 mM, pApa 10 mM, pBpa 1 mM, pAzpa 5 mM, pPpa 1 mM in media, anti-myc column purified
From the text: The pMpaRS gene was inserted directly after the non-regulated CMV promoter for efficient and continuous expression of pMpaRS. Another plasmid (pSWAN-GFP37TAG in FIG. 4B) containing both three tandem repeats of the BstRNACUA^Tyr gene and the GFP37TAG gene was also constructed. The gene encoding GFP37TAG was inserted after a Tet-regulated CMV promoter to minimize potential read-through of the nonsense amber codon caused by endogenous amber suppression in mammalian cells. These two plasmids were then assayed for their suppression efficiency. Because both plasmids contain three tandem repeats of the BstRNACUA^Tyr gene, varying the ratio of the two plasmids to increase the suppression level is not expected to change the total amount of the BstRNACUA^Tyr gene transfected into cells. Under optimized transfection conditions (0.5 μg of pSWAN-pMpaRS and 2.5 μg pSWAN-GFP37TAG per 2×10^6 cells), the suppression level is roughly two-fold higher than that using the three plasmids pUC18-3BstRNACUA^Tyr, pcDNA4-pMpaRS, and pcDNA4-GFP37TAG (the suppression level was determined by the number of fluorescent cells). Cells were grown for 1-2 days after induction and kept viable before harvesting. The yield of mutant GFP containing pMpa (GFP-pMpa) was also quantified. In the presence of 10 mM pMpa in the growth media, 1 μg of mutant GFP can be obtained from 2×10^7 adhesive T-REx™ CHO cells.
Transient transfection of T-REx™ CHO and 293 cells with the pSWAN-EcTyrRS variants and pSWAN-GFP37TAG (0.5 μg of pSWAN-EcTyrRS variant and 2.5 μg of pSWAN-GFP37TAG per 2×10^6 cells) all afforded roughly two-fold higher suppression levels than for the three plasmids pUC18-3BstRNACUA^Tyr, pcDNA4-EcTyrRS variant, and pcDNA4-GFP37TAG (with the exception of the pIpa specific variant). Mutant GFPs containing pApa, pBpa, pAzpa or pPpa were also expressed in T-REx™ CHO cells transfected with the pSWAN-EcTyrRS variants and pSWAN-GFP37TAG and grown in media containing the corresponding unnatural amino acid (pApa, 10 mM; pBpa, 1 mM; pAzpa, 5 mM; or pPpa, 1 mM) for 1-2 days, and purified using an anti-myc antibody column. The yields of the mutant proteins containing pApa and pAzpa were close to that for pMpa (˜1 μg per 2×10^7 cells), and the yields of mutant proteins containing pBpa and pPpa were somewhat lower (˜0.7 μg per 2×10^7 cells). Because the expression levels of EcTyrRS variants in T-REx™ CHO cells are similar, the lower yield of the mutant proteins containing pBpa and pPpa may be due to the low concentrations of unnatural amino acids in the media.
pSWAN-EcTyrRS variants and pSWAN-GFP37TAG were used to express mutant GFPs containing unnatural amino acids. T-REx™ CHO cells (Invitrogen™) were grown in 75 cm^2 tissue culture flasks (BD Biosciences) to 80-90% confluency and transfected with 2 μg of pSWAN-EcTyrRS and 10 μg pSWAN-GFP37TAG using […] FuGENE® 6. After overnight incubation, the media were changed to the fresh media containing the unnatural amino acid (pMpa, 10 mM; pApa, 10 mM; pBpa, 1 mM; pAzpa, 5 mM; and pPpa, 1 mM) and 1 μg/ml tetracycline. Cells were then grown for 1-2 days at 37° C. before harvesting, and then lysed with RIPA lysis buffer. The supernatant from the cell lysate was dialyzed against and equilibrated with PBS buffer before loading onto an anti-myc antibody agarose column (Sigma). The column was washed with 15 column volumes of PBS buffer and then eluted with 0.1 M ammonium hydroxide. The purified proteins were neutralized with 0.1 M acetic acid and analyzed by SDS-PAGE. […]

[2] = system: position 37 of GFP; experiment: Fidelity of unnatural amino acid incorporation by mass spectrometry (nano-RP LC/MS/MS, ESI TOF-MS); details: for wild type peptide signals in tandem MS of mutant GFP sample: nano-RP LC/MS/MS of tryptic fragments, mutant GFP from T-REx CHO cells
From the text: To further characterize GFP-pMpa, the mutant protein was expressed in T-REx™ CHO cells transiently transfected with both pSWAN-pMpaRS and pSWAN-GFP37TAG. The protein was purified using an anti-myc antibody agarose column and then separated by SDS-PAGE. The GFP-pMpa band from the SDS-PAGE gel was digested with trypsin and analyzed by nanoscale reversed-phase liquid chromatography/mass spectrometry/mass spectrometry (nano-RP LC/MS/MS). In parallel, wild type GFP was purified from cells transfected with pcDNA4-GFP and subjected to the same analysis.
Proteolysis of affinity purified proteins (performed for wild-type and pBpa samples) was carried out by overnight incubation of proteins at 37° C. with sequencing-grade modified trypsin (Promega) using a substrate/enzyme ratio of 10:1 (wt/wt) based on the estimated protein concentration in 100 mM triethylammonium bicarbonate buffer (pH 8.5). In-gel digestions (performed for pMpa, pAzpa, pApa, and pPpa samples) were performed according to a modified EMBL procedure (see the website for EMBL, Heidelberg, Germany, Bioanalytical Research Group). Briefly, gel slices were excised to approximately 1 mm×1 mm cubes, washed for 5 minutes with water, 15 minutes with acetonitrile, and dried in a vacuum centrifuge before being rehydrated at 0° C. for 30 minutes with 12.5 ng/μl of sequencing-grade modified trypsin in 50 mM triethylammonium bicarbonate buffer (pH 8.5). Excess buffer was removed and 20 μl of 50 mM triethylammonium bicarbonate buffer (pH 8.5) was added to the gel slices before incubating at 37° C. overnight. Peptides were extracted from the gel slices as described in the protocol.
Nano-RP LC/MS/MS was performed with an HPLC pump, autosampler (Agilent Technologies, Palo Alto, Calif.), and an LTQ Orbitrap hybrid mass spectrometer (ThermoElectron, San Jose, Calif.). Tryptic digests were loaded with a pressure bomb onto a 75 μm i.d. precolumn packed with 4 cm of 5-μm Monitor C18 particles (Column Engineering, Ontario, Calif.) at a flow rate of approximately 2 μl/min. The precolumn was then connected to the HPLC pump and after several minutes of washing with solvent A the analytical column with integrated emitter tip (360 μm O.D.×75 μm i.d; 10 cm of 5 μM C18, ˜5-μm tip) was connected in series. The chromatographic profile was from 100% solvent A (0.1% aqueous acetic acid) to 50% solvent B (0.1% acetic acid in acetonitrile) in 40 min; the flow rate through the analytical column was ca. 100 nl/min.
For data-dependent experiments, the mass spectrometer was programmed to first record a high-resolution Orbitrap scan then a full-scan ion trap spectrum (m/z 500-2,000). This was followed by 10 data-dependent MS/MS scans (relative collision energy=35%; 3-Da isolation window) triggered of the ion-trap scan and finally two targeted MS/MS scans. The first targeted MS/MS scan was set to isolate and fragment the doubly charged precursor ion of the predicted unnatural amino acid modified peptide
at m/z 752.3. The raw data were searched against the MSDB database using MASCOT (Matrixscience, London, UK) for protein identification and to find the scans containing the target peptides with the unnatural amino acids as variable modification. To estimate fidelity at Y*37 of GFP-pMpa, single ion chromatograms (doubly charged precursor ions at m/z 752.3 for the wt and 759.3 for pMpa) and selected ion chromatograms (y9, y11, and y12) were integrated using the Xcalibur software package (ThermoElectron, San Jose, Calif.).
Intact protein mass spectra were acquired on an automated LC/MS system (Waters, Milford, Mass.) consisting of a capillary LC with auto-sampler and a QTOF2 mass spectrometer. GFP-pMpa (0.1 mg/ml) was loaded onto a reversed-phase protein Captrap (Michrom Bioresources, Auburn, Calif.) for desalting with 0.1% acetic acid in water and eluted with 80% acetonitrile/0.1% acetic acid at 5 μl/min into the ESI source of the mass spectrometer. […]

[3] = system: Invitrogen™ T-REx™ CHO cells; experiment: Amber suppression of GFP37TAG: full-length GFP expression by Western blot in T-REx CHO cells; format: cell-based, Chinese hamster; details: BstRNACUA^Tyr + EcTyrRS variant, unnatural amino acid in media (plpa 8 mM), 24 hours
Method: (§1) The ability of the six EcTyrRS variants together with BstRNACUA^Tyr to suppress the amber codon in GFP37TAG was then tested in the presence and absence of unnatural amino acids in the growth media. Transient transfection of cells with plasmids was carried out as described for wild type EcTyrRS. Six hours after transfection, the media were replaced by the fresh media containing 1 μg/ml tetracycline and supplemented with the corresponding unnatural amino acid (pMpa, 10 mM; pApa, 10 mM; pBpa, 1 mM; plpa, 8 mM; pAzpa, 5 mM; or pPpa, 1 mM). Cells were then grown 24 hours for T-REx™ CHO cell lines and 48 hours for T-REx™ 293 cell lines before harvesting. In both T-REx™ CHO and 293 cells, the expression of full length GFP37TAG was dependent upon the presence of unnatural amino acids in the growth media as indicated in FIG. 2 and FIG. 3. […]
(§2) For Western blot analysis, harvested cells were lysed in RIPA buffer (Upstate Biotechnology/Millipore) with a 1:100 dilution of protease inhibitor cocktail (Sigma). […] Chemiluminescence was then detected with PIERCE ECL Western Blotting substrate. For T-REx™ 293 cells, the membranes were probed with anti-His-HRP (Invitrogen™; 1:5000 dilution) and then detected with PIERCE ECL Western Blotting substrate.

[4] = system: Invitrogen™ T-REx™ 293 cells; experiment: Amber suppression of GFP37TAG: full-length GFP expression by Western blot in T-REx 293 cells; format: cell-based, human; details: BstRNACUA^Tyr + EcTyrRS variant, unnatural amino acid in media (plpa 8 mM), 48 hours
Method: as §1, §2

[5] = system: T-REx™ 293 cells; experiment: Cellular toxicity of unnatural amino acid in growth media; format: cell-based; details: 8 mM in growth media

CC(=O)c1ccc(C[C@H](N)C(=O)O)cc1 [pApa, p-acetylphenylalanine]
yield of mutant GFP containing the unnatural amino acid [1]: ~1 μg per 2×10^7 cells
wild type peptide signals in tandem MS of mutant GFP sample [2]: No wild type signals could be detected

N[C@@H](Cc1ccc(C(=O)c2ccccc2)cc1)C(=O)O [pBpa, p-benzoylphenylalanine]
yield of mutant GFP containing the unnatural amino acid [1]: ~0.7 μg per 2×10^7 cells
wild type peptide signals in tandem MS of mutant GFP sample [2]: trace amount of the wild type peptide

COc1ccc(C[C@H](N)C(=O)O)cc1 [pMpa, p-methoxyphenylalanine]
yield of mutant GFP containing the unnatural amino acid [1]: 1 μg per 2×10^7 cells
purity estimate from the three most abundant fragment ions (y9, y11, y12) in tandem MS ([2]; GFP-pMpa from T-REx CHO cells): 99.93%
fidelity for incorporation (integration of single ion chromatograms of precursor ions) ([2]; GFP-pMpa from T-REx CHO cells, tryptic peptide […]*GK): > 99.9%
wild type GFP signals in intact protein ESI TOF-MS ([2]; anti-myc purified GFP-pMpa, charge-state deconvoluted spectrum): No wild type GFP signals

C#CCOc1ccc(C[C@H](N)C(=O)O)cc1 [pPpa, p-propargyloxyphenylalanine]
yield of mutant GFP containing the unnatural amino acid [1]: ~0.7 μg per 2×10^7 cells
wild type peptide signals in tandem MS of mutant GFP sample [2]: No wild type signals could be detected

N[C@@H](Cc1ccc(I)cc1)C(=O)O [plpa, p-iodophenylalanine]
expression of full length GFP37TAG [3]: low expression level
expression of full length GFP37TAG [4]: no GFP expression
time until cells die (cellular toxicity) [5]: 6 h
